Experimental data reported in patent publication US20030147936A1, “Prostatic hormonal implants treatment of prostate cancer” (priority 2002, published 2003).
Where two headings read alike, the source gives them in different places.

Legend:
[1] = test system: recurrent poor prognostic prostate cancer
Experimental: Since this hormonal treatment was rendered at recurrence after radiation therapy, it is termed as secondary hormonal treatment.
Later it was reduced to 1 mg per day.

[2] = test system: recurrent prostate cancer; test: Serum acid phosphatase of the same patient on oral DES; assay type: in vivo, human
[3] = test system: hormone-refractory prostate cancer; details: in vivo; cited from earlier work
[4] = test system: prostate with cancer, prostatic volume greater than 50 cc; details: before interstitial radioactive seed implant; cited from earlier work
[5] = test system: rat breast tumor; test: Implantation of iodoestradiol adsorbed sponges to rat breast tumor; assay type: in vivo; details: sponges implanted to rat breast tumor; unpublished data
From the text: In U.S. Pat. No. 4,321,208 (31; Sahadevan V: Preparation of directly iodinated steroid hormones and related compounds, U.S. Pat. No. 4,321,208; 1982) this inventor has described the methods for preparation of iodinated steroid hormones including the estradiol as early as in 1976, the time of filing the patent application.

[6] = biological target: estrogen receptor sites (Homo sapiens, UniProt P03372); details: cited from earlier work
estrogen receptor sites, sequence (P03372 whole entry): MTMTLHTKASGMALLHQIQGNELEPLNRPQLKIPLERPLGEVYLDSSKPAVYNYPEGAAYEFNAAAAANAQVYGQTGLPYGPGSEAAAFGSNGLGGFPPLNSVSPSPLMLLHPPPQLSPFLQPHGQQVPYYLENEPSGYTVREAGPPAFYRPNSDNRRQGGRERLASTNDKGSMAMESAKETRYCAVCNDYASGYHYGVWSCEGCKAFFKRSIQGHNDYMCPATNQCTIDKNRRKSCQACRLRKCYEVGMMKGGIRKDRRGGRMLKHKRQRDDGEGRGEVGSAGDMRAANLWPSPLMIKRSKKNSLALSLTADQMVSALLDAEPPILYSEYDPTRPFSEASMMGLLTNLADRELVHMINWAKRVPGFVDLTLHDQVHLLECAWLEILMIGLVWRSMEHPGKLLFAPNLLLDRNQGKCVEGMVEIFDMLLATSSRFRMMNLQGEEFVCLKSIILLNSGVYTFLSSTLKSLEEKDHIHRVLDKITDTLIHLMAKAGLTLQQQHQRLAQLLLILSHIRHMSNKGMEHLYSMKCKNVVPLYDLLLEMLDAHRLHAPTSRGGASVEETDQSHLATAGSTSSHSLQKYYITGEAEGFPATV

[7] = test system: estrogen antiserum; details: cited from earlier work
[8] = DES 1 mg three times per day by mouth, four years of follow-ups
[9] = June 10, 1993, pretreatment value, before DES was started, table dose 3 mg 3× daily
[10] = September 15, 1993, DES 3 mg 3× daily (table)

Molecule: CC/C(=C(/CC)c1ccc(O)cc1)c1ccc(O)cc1 [DES, diethylstilbestrol]
- PSA reduced to ([1]; 1 mg DES three times a day, patients with serum PSA exceeding over 300 ng per ml): less than 1 ng per ml
- PSA ([1]; August 4, 1996, DES 1 mg daily): >0.1 ng/mL
- PSA ([1]; August 5, 1997, DES 1 mg daily): >0.1 ng/mL
- serum PSA nadir value during treatment with DES [1, 8]: 0.1 ng per ml
- PSA reduced to ([1]; DES oral dose of 1 mg daily, 363 ng per ml before treatment): 0.1 ng per ml
- PSA [1, 9]: 363.0 ng/mL
- PSA ([1]; June 13, 1994, DES 3 mg 3× daily (table)): >0.1 ng/mL
- PSA ([1]; May 3, 1995, DES 3 mg 3× daily (table)): >0.1 ng/mL
- PSA ([1]; September 7, 1993, DES 3 mg 3× daily (table)): 38.4 ng/mL
- PSA [1, 10]: 4.5 ng/mL
- PSA ([1]; September 26, 1994, DES 3 mg 3× daily (table)): >0.1 ng/mL
- PSA value, maintained at low nadir ([1]; continued DES alone, 1 mg three times a day, later 1 mg per day, maintained for four years, pretreatment 363 ng per ml): less than 0.1 ng
- decrease of serum PSA (FIG. 1) ([1]; from pretreatment 363 ng per ml, rapidly): normal level
- acid phosphatase nadir value during treatment with DES [2, 8]: 0.3 international unit
- Acid Phosphatase [2, 9]: 48.0 iu
- Acid Phosphatase [2, 10]: 0.3 iu
- decrease of serum acid phosphatase (FIG. 3) ([2]; from pretreatment 48 international units per ml, rapidly): normal level
- serum acid phosphatase level ([2]; three months after DES 1 mg three times a day, pretreatment 48.0): < 0.3 international units per ml
- effectiveness in hormone-refractory prostate cancer [3]: effective

Molecule: LHRH
- reduction of the initial prostatic volume [4]: about 40 per cent

Molecule: iodoestradiol
- tumor regression [5]: excellent tumor regression
- binding to estrogen receptor sites [6]: binds
- binding to estrogen antiserum [7]: binds
